This note sets out measurements from ChEMBL document CHEMBL1159050, “2-Arylbenzoxazoles as CETP inhibitors: substitution and modification of the alpha-alkoxyamide moiety” (Bioorg Med Chem Lett, 2010).

Where only a bound is given, the exact number is not on record here.

Test system in the first series: not listed separately
Kind of series: Oral bioavailability in mouse. Type of series: ADME, organism-based. As to conditions: in vivo.
Take `N#Cc1ccc2oc(-c3ccc(NC(=O)COC(C(F)(F)F)C(F)(F)F)cc3)nc2c1`: the bioavailability (in general, dose-corrected exposure relative to a reference, in per cent) is 4%. For `CC(C)OCCNc1ccc(-c2nc3cc(C#N)ccc3o2)cc1`, the bioavailability amounted to 30%. With `CC(OCCNc1ccc(-c2nc3cc(C#N)ccc3o2)cc1)(C(F)(F)F)C(F)(F)F`, the bioavailability came to 20%.

Test system in the next series: not listed separately
Kind of series: Half life in mouse. Conditions: in vivo. Type of series: ADME, organism-based.
On to `CC(OCCNc1ccc(-c2nc3cc(C#N)ccc3o2)cc1)(C(F)(F)F)C(F)(F)F`, for which the half-life (usually the time needed for the level to fall by half in the phase considered) was 7.3 h.

For a further series, the target named is T1, Cholesteryl ester transfer protein (Homo sapiens, UniProt P11597).
T1 sequence (P11597 whole entry): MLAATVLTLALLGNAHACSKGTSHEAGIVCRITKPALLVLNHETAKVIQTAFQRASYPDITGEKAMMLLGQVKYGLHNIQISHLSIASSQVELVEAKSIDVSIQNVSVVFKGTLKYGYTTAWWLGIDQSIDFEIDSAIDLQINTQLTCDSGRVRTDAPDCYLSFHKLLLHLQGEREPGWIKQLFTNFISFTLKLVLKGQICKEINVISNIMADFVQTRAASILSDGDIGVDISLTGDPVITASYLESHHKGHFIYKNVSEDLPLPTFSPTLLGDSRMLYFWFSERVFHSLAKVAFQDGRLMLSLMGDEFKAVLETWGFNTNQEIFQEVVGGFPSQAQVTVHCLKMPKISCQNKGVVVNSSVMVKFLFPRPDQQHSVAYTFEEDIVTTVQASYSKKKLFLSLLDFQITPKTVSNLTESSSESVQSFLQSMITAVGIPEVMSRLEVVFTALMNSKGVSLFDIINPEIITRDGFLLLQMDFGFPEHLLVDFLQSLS
The series is described as follows: Inhibition of CETP assessed as cholesteryl ester transfer activity.
Settings: not given
As to `O=C(COCc1ccccc1)Nc1ccc(-c2nc3cc(Cl)ccc3o2)cc1`, the IC50 (as a rule, the concentration at which inhibition is half-maximal) was determined as 6540 nM. In the case of `CCOCC(=O)Nc1ccc(-c2nc3cc(C#N)ccc3o2)cc1`, the IC50 was 1380 nM.

For the compound `O=C(COc1ccc(Cl)cc1)Nc1ccc(-c2nc3cc(Cl)ccc3o2)cc1`, the IC50 turned out to be 6810 nM.

Regarding `O=C(COc1ccccc1Cl)Nc1ccc(-c2nc3cc(Cl)ccc3o2)cc1`, the half-inhibitory concentration (IC50) came out at 2150 nM.

Regarding `Cc1ccc(OCC(=O)Nc2ccc(-c3nc4cc(Cl)ccc4o3)cc2)cc1`, the IC50 was more than 30000 nM. For the compound `O=C(COc1ccc(F)cc1)Nc1ccc(-c2nc3cc(Cl)ccc3o2)cc1`, the half-maximal inhibitory concentration (IC50) is 1770 nM. Same read-out and setting: with `O=C(CSc1ccccc1)Nc1ccc(-c2nc3cc(Cl)ccc3o2)cc1` the figure was more than 30000 nM; with `Cc1ccccc1OCC(=O)Nc1ccc(-c2nc3cc(C#N)ccc3o2)cc1`, 130 nM; with `CC(C)OCC(=O)Nc1ccc(-c2nc3cc(C#N)ccc3o2)cc1`, 613 nM. As to `O=C(NCc1ccccc1)Nc1ccc(-c2nc3cc(Cl)ccc3o2)cc1`, the IC50 was more than 30000 nM.

For `CC(Oc1ccccc1)C(=O)Nc1ccc(-c2nc3cc(Cl)ccc3o2)cc1` (stereo not drawn), the IC50 is more than 30000 nM. For `O=C(COc1cccc(F)c1)Nc1ccc(-c2nc3cc(Cl)ccc3o2)cc1`, the half-inhibitory concentration (IC50) was 1990 nM. For `N#Cc1ccc2oc(-c3ccc(NC(=O)COC(C(F)(F)F)C(F)(F)F)cc3)nc2c1`, the concentration for half-maximal inhibition (IC50) is 94 nM. For the compound `CCCc1ccccc1OCC(=O)Nc1ccc(-c2nc3cc(Cl)ccc3o2)cc1`, the IC50 worked out at 2700 nM. As for `Cc1ccccc1CNC(=O)c1ccc(-c2nc3cc(Cl)ccc3o2)cc1`, the IC50 is more than 30000 nM. For the compound `N#Cc1ccc2oc(-c3ccc(NC(=O)COCc4ccccc4C(F)(F)F)cc3)nc2c1`, the 50% inhibitory concentration (IC50) came out at 505 nM.

In the case of `N#Cc1ccccc1OCC(=O)Nc1ccc(-c2nc3cc(Cl)ccc3o2)cc1`, the IC50 was more than 30000 nM. `O=C(COc1cccc([N+](=O)[O-])c1)Nc1ccc(-c2nc3cc(Cl)ccc3o2)cc1`: the IC50 stood at 26500 nM.

Turning to `COc1cccc(OCC(=O)Nc2ccc(-c3nc4cc(Cl)ccc4o3)cc2)c1`, the concentration for half-maximal inhibition (IC50) turned out to be 12900 nM. `COc1ccccc1OCC(=O)Nc1ccc(-c2nc3cc(Cl)ccc3o2)cc1`: the IC50 was more than 30000 nM.

For `Cc1cccc(OCC(=O)Nc2ccc(-c3nc4cc(Cl)ccc4o3)cc2)c1`, the IC50 worked out at 19300 nM.

Take `O=C(COc1ccccc1C(F)(F)F)Nc1ccc(-c2nc3cc(Cl)ccc3o2)cc1`: the IC50 came to 6390 nM. On to `O=C(COc1cccc(Cl)c1)Nc1ccc(-c2nc3cc(Cl)ccc3o2)cc1`, for which the IC50 amounted to 1250 nM.

Take `O=C(COc1cccc(C(F)(F)F)c1)Nc1ccc(-c2nc3cc(Cl)ccc3o2)cc1`: the IC50 is 1770 nM. As to `N#Cc1ccc2oc(-c3ccc(NC(=O)COC(C(F)(F)F)(C(F)(F)F)C(F)(F)F)cc3)nc2c1`, the IC50 came to 151 nM. Turning to `N#Cc1ccc(OCC(=O)Nc2ccc(-c3nc4cc(Cl)ccc4o3)cc2)cc1`, the IC50 was more than 30000 nM. As to `N#Cc1cccc(OCC(=O)Nc2ccc(-c3nc4cc(Cl)ccc4o3)cc2)c1`, the IC50 is more than 30000 nM. For the compound `O=S(=O)(Cc1ccccc1)Nc1ccc(-c2nc3cc(Cl)ccc3o2)cc1`, the IC50 was more than 30000 nM. On the same count and under the same terms, the value for `Cc1ccccc1OCC(=O)N(C)c1ccc(-c2nc3cc(Cl)ccc3o2)cc1` was more than 30000 nM; that for `CC(C)OCCNc1ccc(-c2nc3cc(C#N)ccc3o2)cc1` was 890 nM.

With `CC(OCC(=O)Nc1ccc(-c2nc3cc(C#N)ccc3o2)cc1)(C(F)(F)F)C(F)(F)F`, the half-maximal inhibitory concentration (IC50) was 44 nM. For the compound `O=C(COc1ccccc1)Nc1ccc(-c2nc3cc(Cl)ccc3o2)cc1`, the IC50 amounted to 4230 nM. `COc1ccc(OCC(=O)Nc2ccc(-c3nc4cc(Cl)ccc4o3)cc2)cc1`: the half-inhibitory concentration (IC50) turned out to be 4570 nM. Regarding `O=C(COc1ccc([N+](=O)[O-])cc1)Nc1ccc(-c2nc3cc(Cl)ccc3o2)cc1`, the IC50 came to 2210 nM.

`CCc1ccccc1OCC(=O)Nc1ccc(-c2nc3cc(Cl)ccc3o2)cc1`: the IC50 was determined as 2590 nM. On to `c1ccc(OCCNc2ccc(-c3nc4ccccc4o3)cc2)cc1`, for which the concentration for half-maximal inhibition (IC50) was 75900 nM. As for `O=C(COc1ccccc1[N+](=O)[O-])Nc1ccc(-c2nc3cc(Cl)ccc3o2)cc1`, the IC50 worked out at 4400 nM.

`O=C(COc1ccc(C(F)(F)F)cc1)Nc1ccc(-c2nc3cc(Cl)ccc3o2)cc1`: the half-maximal inhibitory concentration (IC50) was 810 nM. `Cc1ccccc1OCC(=O)Nc1ccc(-c2nc3cc(Cl)ccc3o2)cc1`: the IC50 is 1110 nM. On to `Cc1ccccc1COCC(=O)Nc1ccc(-c2nc3cc(C#N)ccc3o2)cc1`, for which the IC50 came out at 1180 nM. On the same count and under the same terms, the value for `O=C(COc1ccccc1F)Nc1ccc(-c2nc3cc(Cl)ccc3o2)cc1` was more than 30000 nM; that for `CC(OCCNc1ccc(-c2nc3cc(C#N)ccc3o2)cc1)(C(F)(F)F)C(F)(F)F` was 151 nM. With `O=C(CNCc1ccccc1)Nc1ccc(-c2nc3cc(Cl)ccc3o2)cc1`, the IC50 amounted to 18100 nM. With `CC(C)(C)OCC(=O)Nc1ccc(-c2nc3cc(C#N)ccc3o2)cc1`, the IC50 was 132 nM. For `O=C(CNc1ccccc1)Nc1ccc(-c2nc3cc(Cl)ccc3o2)cc1`, the IC50 is 8130 nM. Same read-out and setting: with `O=C(Nc1ccc(-c2nc3cc(Cl)ccc3o2)cc1)OCc1ccccc1` the figure was more than 30000 nM. For the compound `CC(C)(OCC(=O)Nc1ccc(-c2nc3cc(C#N)ccc3o2)cc1)C(F)(F)F`, the half-maximal inhibitory concentration (IC50) was determined as 51 nM. With `O=C(CCc1ccccc1)Nc1ccc(-c2nc3cc(Cl)ccc3o2)cc1`, the 50% inhibitory concentration (IC50) was more than 30000 nM.

Test system in a further series: not listed separately
Kind of series: Clearance in mouse. Type of series: ADME, organism-based. Conditions: in vivo.
Regarding `CC(OCCNc1ccc(-c2nc3cc(C#N)ccc3o2)cc1)(C(F)(F)F)C(F)(F)F`, the clearance (in general, the volume of plasma or blood freed of the substance per unit of time) turned out to be 31 mL/min/kg.
